Test results from article PMC3094704, “S-Petasin, the Main Sesquiterpene of Petasites formosanus, Inhibits Phosphodiesterase Activity and Suppresses Ovalbumin-Induced Airway Hyperresponsiveness” (Evidence-based Complementary and Alternative Medicine : eCAM, 2011).

What was measured:
[1] = system: OVA-sensitized and challenged BALB/c mice; experiment: Cytokines in BALF (CBA flow cytometry); type: in vivo, mouse
Experimental: (§1) Ten female BABL/c mice in each group were sensitized by an intraperitoneal (i.p.) injection of 20 μg of OVA emulsified in 2.25 mg aluminum hydroxide gel in a total volume of 100 μL on days 0 and 14. The mice were challenged via the airway by 1% OVA in saline for 30 min on Days 28, 29 and 30 by ultrasonic nebulization. Six weeks after the last of three primary OVA challenges, the mice were exposed to 1% OVA for 30 min by nebulization as a secondary challenge. AHR was assessed on Day 74 (48 h after 1% OVA provocation) in each group. […] For comparison, sham-treated mice were sensitized but challenged with saline instead of 1% OVA (non-challenged). The vehicle, a mixture of alcohol : DMSO : 30% HPβCD : saline (0.5 : 0.5 : 1 : 8 , v/v), or S-petasin was injected at a volume of 0.01 mL/g of body weight. AHR was measured in unrestrained animals by barometric plethysmography using a whole-body plethysmograph (WBP) and analyzed using software of Life Science Suite P3 Analysis Modules (Gould, LDS Test and Measurement LLC, Valley View, OH, USA). The mice were placed into the main chamber of the WBP, and the baseline enhanced pause (P enh) value was determined. Then the mice were nebulized first with phosphate-buffered saline (PBS), and subsequently with increasing doses (6.25–50 mg/mL) of MCh for 3 min for each nebulization, followed by readings of breathing parameters for 3 min after each nebulization with determination of P enh values. Twenty-four hours after the P enh determination, these mice were anesthetized with pentobarbital (50 mg/kg, i.p.), and lavaged via a tracheal tube with PBS (1 × 1.0 mL, 37°C). After lavage, blood was collected from the jugular vein and allowed to sit so that it would coagulate. The collected bronchoalveolar lavage fluid (BALF) and coagulated blood were, respectively, centrifuged at 630 g for 7 min and at 3700 g for 10 min at 4°C, respectively. After centrifugation, the supernatants of BALF and serum were stored at −20°C until the determinations of cytokines, including interleukin (IL)-2, IL-4, IL-5, tumor necrosis factor (TNF)-α and interferon (IFN)-γ by flow cytometric methods using mouse Th1/Th2 cytokine CBA kits, of total immunoglobulin E (IgE), and of total IgG2a using enzyme-linked immunosorbent assay (ELISA) kits (Pharmingen, San Diego, CA, USA) according to the respective recommendations of the manufacturer. OVA-specific IgE was measured as described previously with some modifications. Wells were coated with 100 μL of OVA (20 μg/mL) instead of the capture antibody. Levels are expressed in arbitrary units, where one arbitrary unit equals the optical density of the sample divided by the optical density of unchallenged mouse serum or BALF (standard). The pellet from BALF was re-suspended in ACK lysing buffer (1.658 g NH4Cl, 0.2 g KHCO3 and 1.44 mg EDTA in 200 mL of water) to lyse the residual erythrocytes in each sample. The number of inflammatory cells was counted using a hemocytometer (Hausser Scientific, Horsham, PA, USA). Cytospun slides were stained and differentiated in a blinded fashion by counting at least 100 cells under light microscopy.

[2] = system: high-affinity rolipram binding sites (HARBSs) of guinea pig brain cell membranes; experiment: Displacement of [3H]-rolipram (PDE4H determination)
Experimental: When the above-described guinea pigs were sacrificed, the whole brains were removed and homogenized with a glass/Teflon homogenizer (Glas-Col, Terre Haute, IN, USA) in 10 volumes of cold medium (pH 6.5) containing 20 mM Bis-Tris, 2 mM benzamidine, 2 mM EDTA, 50 mM sodium chloride, 0.1 mM PMSF and 1 mM dithiothreitol. At 4°C, the homogenate was centrifuged at 170 g for 5 min to remove connective tissues and blood vessels. The suspended homogenate was then re-centrifuged at 40 000 g for 30 min to separate the cytosolic and particulate portions. The particulate portion was re-suspended in a suspension at a concentration of 400 mg/mL (wet weight/volume), after washing three times with homogenizing buffer. The particulate portion mainly consisted of cell membranes. The binding ability of S-petasin (3–300 μM) or Ro 20-1724 (1–10,000 nM), a reference drug, to high-affinity rolipram binding sites (HARBSs) of the membranes was determined by replacing 2 nM [^3H]-rolipram in a reaction buffer at 30°C for 1 h, according to the method described by previous investigators and modified by us. Briefly, the reaction buffer consisted of 50 mM Tris-HCl and 5 mM MgCl2 (pH 7.5). The total volume of the reaction mixture was 25 μL, consisting of 10 μL of particulate suspension, 10 μL of [^3H]-rolipram and 5 μL of S-petasin or Ro 20-1724. After 1 h, the reaction was terminated by moving the reaction vessel into crushed ice. Then the reaction mixture was transferred onto Whatman GF/B glass-fiber filters, which were soaked in a 0.3% polyethyleneimine solution in a mini-funnel. The reaction mixture was filtered by centrifuging at 90 g for 10 s, and the filtrate was collected into a 1.5 mL Eppendorf tube with a top adapted to the outlet of the mini-funnel. The filters were washed with 300 μL of reaction buffer three times each in the same way, and transferred into 2 mL of cocktail for radiation counting (total binding) using a β-scintillation counter (Beckman, Fullerton, CA, USA). Non-specific binding, which was defined in the presence of 10 μM Ro 20-1724, was subtracted from the total binding to yield the specific binding. The effective concentration (EC50) values of S-petasin and Ro 20-1724, at which a half of [^3H]-rolipram bound onto HARBSs of cell membranes was displaced, were defined as the PDE4H values, and these were related to any adverse effects, such as nausea, vomiting and gastric hypersecretion.

[3] = system: OVA-sensitized and challenged BALB/c mice; experiment: Airway hyperresponsiveness in vivo (Penh, whole-body plethysmography); parameters: species or system mouse
Experimental: as §1

C=C(C)[C@@H]1C[C@@]2(C)C(=CC1=O)CC[C@@H](OC(=O)/C=C\SC)[C@@H]2C [S-Petasin]
Increase in IL-4 level in BALF ([1]; 30 μmol/kg s.c., exception at 10 μmol/kg): significantly suppressed | Increase in IFN-γ level in BALF ([1]; 10–30 μmol/kg s.c.): significantly suppressed | Increase in IL-2 level in BALF ([1]; 10–30 μmol/kg s.c.): significantly suppressed | Increase in IL-5 level in BALF ([1]; 10–30 μmol/kg s.c.): significantly suppressed | Increase in TNF-α level in BALF ([1]; 10–30 μmol/kg s.c.): significantly suppressed | EC50 ([2]; HARBSs of guinea pig brain cell membranes): > 300 µM | percentage displacement of [3H]-rolipram binding ([2]; at the highest concentration (300 μM), 2 nM [3H]-rolipram): 28.0%±5.7% | Penh value at the baseline ([3]; 10 μmol/kg s.c.): 3.19 ± 0.47 | Penh value of PBS nebulization ([3]; 10 μmol/kg s.c.): 2.99 ± 0.22 | Penh value at the baseline ([3]; 30 μmol/kg s.c.): 3.13 ± 0.32 | Penh value of PBS nebulization ([3]; 30 μmol/kg s.c.): 3.02 ± 0.23 | Enhancement of the Penh value induced by MCh ([3]; 10–30 μmol/kg s.c., MCh at 50 mg/mL): dose-dependently and significantly attenuated
